Laboratory results as given in patent US12583867B2, “Pyridone derivative crystal form and preparation method and application therefor” (priority 2019, dated 2026).

Key:
[1] = Mechanical stability: XRPD before and after jet milling; assay type: physicochemical; settings: jet milled to D90≤10 μm
From the text: In addition, 224.90 g of the above compound of the formula (1) was jet milled (feed pressure 0.4 to 0.5 MPa, milling pressure 0.18 to 0.22 MPa) to give 212.00 g sample with a particle size of D90≤10 μm.

[2] = Solid state stability of the crystal form (XRPD, HPLC); assay type: physicochemical
Method: The crystal form F samples of the compound of formula (1) were placed at 60° C. for 30 days, at 25° C./92.5% RH for 30 days, and exposed to light for 15 days, respectively. The physical and chemical stability of the samples were tested by XRPD and HPLC.

[3] = Hygroscopicity by dynamic vapour sorption (DVS); assay type: physicochemical
Method: • Instrument model: Bruker D8 Venture single-crystal diffractometer • Light source: Mo target • X-ray: Mo—K (=0.71073 Å) • Detector: CMOS based detector • Resolution: 0.84 Å • Current and voltage: 50 kV, […] 2. X-Ray Powder Diffraction (XRPD) • Instrument model: PANalytical X'Pert3 Power • X-ray: Cu, Kα, Kα1 (Å): 1.540598; Kα2 (Å): 1.544426 • X-ray tube setting: 45 kV, 40 mA • Divergence slit: 1/8° • Scan pattern: continuous • Scanning range (2θ): 3°-40° • Scan step size (2θ): 0.0263° 3. Differential Scanning Calorimetry (DSC) • Instrument model: TA Q2000/2500 differential scanning calorimeter • Heating rate: 10° C./min • Temperature range: 25° C. to setting end-point temperature • Shielding gas: nitrogen 4. Thermogravimetric Analysis (TGA) • Instrument model: TA Q5000/5500 thermogravimetric analyzer • Heating rate: 10° C./min • Temperature range: room temperature to setting end-point temperature • Shielding gas: nitrogen 5. Dynamic Vapour Sorption (DVS) • Instrument model: SMS DVS Intrinsic vapour sorption analyzer • Temperature: 25° C. • RH range: 0% RH-95% RH • Shielding gas: nitrogen

[4] = test system: influenza A virus (H1N1, A/WSN/33); assay: Efficacy on mice, IAV mouse infection model; assay type: in vivo, BALB/c mice; settings: 15 mpk orally twice a day; for Body weight change: infected mice, during the experiment; for Mean difference of virus titer compared with the menstruum group: mice, 5th day after virus infection
From the text: Female BALB/c mice were inoculated with influenza A virus (H1N1, A/WSN/33) by intranasal administration to establish an IAV mouse infection model. Menstruum, the compound of formula (1) (15 mpk) or oseltamivir phosphate (15 mpk) were orally administered twice a day. Animal weight and survival status were monitored daily during the test, and on the 5th day, some animals were sacrificed to take lung tissue for virus titer detection, and the remaining mice were used for survival rate monitoring. The in vivo anti-influenza virus efficacy of the test compound was determined by virus titer in lung tissue, mouse body weight change and survival rate.

[5] = Light (white light 4500 Lux, ultraviolet light 90 μw/cm^2)/15 days

| Compound | Crystal form before and after milling (XRPD) [1] | Appearance and character ([2]; 25° C./92.5% RH/30 days) | Crystal form change ([2]; 25° C./92.5% RH/30 days) | Purity (area %) ([2]; 25° C./92.5% RH/30 days) | Purity/initial (%) ([2]; 25° C./92.5% RH/30 days) | Appearance and character ([2]; 60° C./30 days) | Crystal form change ([2]; 60° C./30 days) | Purity (area %) ([2]; 60° C./30 days) | Purity/initial (%) ([2]; 60° C./30 days) | Appearance and character ([2]; Initial) | Crystal form change ([2]; Initial) | Purity (area %) ([2]; Initial) | Appearance and character [2, 5] | Crystal form change [2, 5] | Purity (area %) [2, 5] | Purity/initial (%) [2, 5] | Crystal form before and after the DVS test (XRPD) ([3]; DVS at 25° C.) | Moisture-absorption weight gain ([3]; DVS, 25° C./80% RH) | Body weight change [4] | Mean difference of virus titer compared with the menstruum group [4] |
| --- | --- | --- | --- | --- | --- | --- | --- | --- | --- | --- | --- | --- | --- | --- | --- | --- | --- | --- | --- | --- |
| COC(=O)OCOc1c2n(ccc1=O)N([C@@H]1c3ccccc3SCc3c1ccc(F)c3F)[C@@H]1COC3(CC3)CN1C2=O [crystal form F] | does not change | White | No | 99.0 area % | 100.4% | White | No | 98.7 area % | 100.1% | White | No | 98.6 area % | White | No | 98.5 area % | 99.9% | did not change | 0.10% |  |  |
| CCOC(=O)C1=C[C@@H](OC(CC)CC)[C@H](NC(C)=O)[C@@H](N)C1 [Oseltamivir phosphate, oseltamivir phosphate, reference compound] |  |  |  |  |  |  |  |  |  |  |  |  |  |  |  |  |  |  | remained stable during the experiment, had no significant decline | 3.46 Log10 (plaques number/gram of |
| COC(=O)OCOc1c2n(ccc1=O)N([C@@H]1c3ccccc3SCc3c1ccc(F)c3F)[C@@H]1COC3(CC3)CN1C2=O [Compound of formula (1), (((R)-12′-((S)-7,8-difluoro-6,11-dihydrodibenzo[b,e]thiepin-11-yl)-6′,8′-dioxo-6′,8′,12′,12a′-tetrahydro-1′H,4′H-spiro[cyclopropane-1,3′-[1,4]oxazino[3,4-c]pyrido[2,1-f][1,2,4]triazin]-7′-yl)oxy)methyl methyl carbonate] |  |  |  |  |  |  |  |  |  |  |  |  |  |  |  |  |  |  | remained stable during the experiment, had no significant decline | 3.92 Log10 (plaques number/gram of |
